Literature values, collected in PMC7745548 (International Journal of Tryptophan Research : IJTR, 2020).

What was measured:
[1] = test system: CYP2C9; conditions: O-demethylation major pathway
[2] = test system: CYP1A2
[3] = test system: human microsomal P450 1A2 (CYP1A2); conditions: different crystal structure (PDB code: 1FAG) ref 26, 28

Metabolism by CYP2C9 [1] | Metabolism by CYP1A2 [2] | Distance between SOM and Fe(II) ion of heme [3] [Å] | SMILES
mainly metabolised by CYP2C9 | only slightly metabolised by CYP1A2 |  | COc1ccc2c(c1)c(CC(=O)O)c(C)n2C(=O)c1ccc(Cl)cc1 [Indomethacin]
 |  | 4.15 | COc1ccc2[nH]cc(CCNC(C)=O)c2c1 [MLT, N-acetyl-5-methoxytryptamine]
